Data from patent US4518611A, “2-Furylbutyrolactone modulation of the immune system in mammals” (priority 1983, dated 1985).

Test system: L5178Y target cells
Assay: MLTC assay of cytotoxic lymphocyte (CTL) activity, L5178Y target cells
Assay type: cell-based, mouse, DBA/2
Conditions: pre-challenge TDS
Description: A mixed lymphocyte tumor culture (MLTC) immunoassay, used to determine the cytotoxic lymphocyte (CTL) activity employs lymphocytes from either immunized (sensitized) mice or DBA/2 tumor dormant state animals in various stages of the tumor dormant state (TDS). The assay employs L5178Y target cells labeled with ^51 Chromium and effector cells (sensitized lymphocytes) from the above-mentioned sources. Effector-target cell ratios will vary with different experimental conditions and may or may not include irradiated stimulator L5178Y cells. Results are expressed as % lysis of target cells based on ratio of cpm of test group over cpm of total release (maximum) both of which are corrected for spontaneous release of ^51 Cr. The assay can be performed as an 8 or 18 hour release assay.
Ten days later the resultant tumor nodule, about 1 cm in size, is surgically excised. If the excision was successful, no subcutaneous tumors develop at the site of implantation. […] These mice are considered to be in the tumor dormant state. […]
DBA/2 mice in the early stage of TDS, prior to challenge with viable L5178Y tumor cells, were used to measure the effect of Cpd. 2 on CTL activity. Cpd. 2, 0.1, 1.0, 10 or 100 μg/ml, or just buffer was added in 100 ul volumes to MLTC microculture wells containing washed spleen lymphocytes from DBA/2 mice, effector, and L5178Y target cells at varying ^E /T ratios. The MLTC reaction was performed in the presence or absence of irradiated L5178Y stimulator cells. […]

Substance: 2-furylbutyrolactone:succinimide [Cpd. 2]
- % Lysis (0.1 μg/ml, E/T 12.5:1, with stimulator cells): 47.5%
- % Lysis (0.1 μg/ml, E/T 12.5:1, without stimulator cells): 16.5%
- % Lysis (0.1 μg/ml, E/T 25:1, with stimulator cells): 64.0%
- % Lysis (0.1 μg/ml, E/T 25:1, without stimulator cells): 29.5%
- % Lysis (0.1 μg/ml, E/T 50:1, with stimulator cells): 69.5%
- % Lysis (0.1 μg/ml, E/T 50:1, without stimulator cells): 43.5%
- % Lysis (0.1 μg/ml, E/T 100:1, with stimulator cells): 74.5%
- % Lysis (0.1 μg/ml, E/T 100:1, without stimulator cells): 48.0%
- % Lysis (1 μg/ml, E/T 12.5:1, with stimulator cells): 58.0%
- % Lysis (1 μg/ml, E/T 25:1, with stimulator cells): 69.5%
- % Lysis (1 μg/ml, E/T 50:1, with stimulator cells): 72.5%
- % Lysis (1 μg/ml, E/T 100:1, with stimulator cells): 75.5%
- % Lysis (10 μg/ml, E/T 12.5:1, with stimulator cells): 58.5%
- % Lysis (10 μg/ml, E/T 12.5:1, without stimulator cells): 26.5%
- % Lysis (10 μg/ml, E/T 25:1, with stimulator cells): 72.5%
- % Lysis (10 μg/ml, E/T 25:1, without stimulator cells): 40.0%
- % Lysis (10 μg/ml, E/T 50:1, with stimulator cells): 72.5%
- % Lysis (10 μg/ml, E/T 50:1, without stimulator cells): 56.5%
- % Lysis (10 μg/ml, E/T 100:1, with stimulator cells): 73.5%
- % Lysis (10 μg/ml, E/T 100:1, without stimulator cells): 61.5%
- % Lysis (100 μg/ml, E/T 12.5:1, with stimulator cells): 47.0%
- % Lysis (100 μg/ml, E/T 25:1, with stimulator cells): 65.0%
- % Lysis (100 μg/ml, E/T 50:1, with stimulator cells): 73.5%
- % Lysis (100 μg/ml, E/T 100:1, with stimulator cells): 78.5%
- CTL activity (in words) (with or without stimulator cells, any E/T ratio): increase in CTL activity
